Results taken from patent publication US20050004016A1, “Method of obtaining peptides with tissue-specific activity and pharmaceutical compositions on their basis” (priority 2000, published 2005).
Residues, ends and D or L forms follow the SMILES beside them.

Columns and labels:
[1] = test system: brain subcortical structure explants; experiment: Growth of brain subcortical structure explants (square index, organotypic culture); assay type: cell-based, chicken embryos; details: 100 ng/ml, control SI = 100%
Procedure: Experiments were conducted on 69 fragments of brain subcortical structures of 10-11-days' old chicken embryos. The nutrient medium for cultivation consisted of 35% Eagle's solution, 25% calf foetal serum, 35% Hanks' solution, 5% chicken embryonic extract. The medium was also added glucose (0.6%), insulin (0.5 unit/ml), penicillin (100 unit/ml), glutamine (2 mM). Fragments of the brain subcortical structures were placed in this medium and cultivated in Petri's dishes in a thermostat at 36.7° C. for 48 hours. The experimental medium was added Ala-Glu-Asp-Gly tetrapeptide and Epithalamin in the concentrations of 2, 10, 20, 50, 100, 200, 400 ng/ml. Square index (SI) considered the criterion of biological activity. It was counted as the ratio between the total explant square including the growth zone and the initial square of the subcortical structure fragment Significance of differences between the average values of SI was assessed by Student's t-criterion. ST values were expressed percent, the control SI value being taken for 100%.
The growth zone of the control explants of the brain, subcortical structures included short neurites, migrating glia and fibroblast-resembling cells.
Immediate influence of the substances upon the fragments of the brain subcortical structures was investigated in the following experimental series.

[2] = test system: monolayer hepatocyte culture; experiment: Intensity of protein synthesis ([3H]-leucin inclusion) in monolayer hepatocyte culture; assay type: cell-based, rats; details: 0.005 μg/ml, 4 hours
Procedure: Intensity of the protein synthesis was investigated in the hepatocyte culture of rats aged 4, 8 and 18 months.
To isolate hepatocytes, rat liver was perfused with calcium-free Hanks' solution added 0.5 mM of EDTA and then 0.05% collagenase solution in Medium 199. The cellular suspension was filtered out and centrifuged. The hepatocyte suspension in the concentration of 5×10^5 was introduced into Petri's dishes, their bottoms surfaced with collagen-covered glass. Applied Medium 199 contained no bovine serum but was added 0.2 mg/ml of albumen and 5 μg/ml of insulin. The dishes with glass-covered bottoms were placed in a thermostat at 37° C., aerated and added CO2. […]
Protein synthesis was assessed by [^3H]-leucin inclusion regarding the standard errors for a free marked leucin pull in the same culture. […] Radioactivity of the pull of free intracellular leucin and cellular proteins (in hyamine fraction) after adding the corresponding scintillators was measured on a radioactivity counter SL-30.
The intensity of protein synthesis was calculated by the formula Icorr=Ii×Pav/Pi(cpm), where
Icorr—inclusion of leucin regarding the standard errors of free leucin pull, Ii—measured radioactivity of the proteins for i-culture, Pav—mean radioactivity of proteins and pull for the cultures studied in this experiment, Pi—total radioactivity of proteins and pull of the same culture. […]

liver explants = experiment: Growth of liver explants (square index, organotypic culture); assay type: cell-based, chicken embryos; details: 20 ng/ml
Procedure: The experiments were carried out in 53 liver fragments of 10-11 days old chicken embryos. Nutrient medium for the explant cultivation consisted of 35% of Eagle's solution, 25% of foetal calf serum, 35% of Hank's solution and 5% of chicken embryonic extract. The mixture is added glucose (0.6%), insulin (0.5 unit/ml), penicillin (100 unit/m) and glutamine (2 mM). […] Lys-Glu-Asp-Ala tetrapeptide was added to the experimental medium in the concentrations of 2, 10, 20, 50, 100, 200 and 400 ng/mL Square index (SI) was taken for a biological activity criterion and calculated as a correlation of the total explant square including the growth zone to the initial square of a liver fragment. The SI values were expressed percent, the control SI value taken for 100%.

cerebral cortex explants = experiment: Growth of cerebral cortex explants (square index, organotypic culture); assay type: cell-based, chicken embryos
Procedure: The experiments are conducted on 73 fragments of cerebral cortex explants of 10-11-days' chicken embryos. The nutrient medium for cultivation consisted of 35% Eagle's solution, 25% calf foetal serum, 35% Hanks' solution, 5% chicken embryonic extract. The medium was also added glucose (0.6%), insulin (0.5 unit/ml), penicillin (100 unit/ml), glutamine (2 mM). Fragments of the cerebral cortex were placed in this medium and cultivated in Petri's dishes in a thermostat at 36.7° C. for 48 hours. The experimental medium is was added Ala-Glu-Asp-Pro tetrapeptide and Cortexin in the concentrations of 2, 10, 20, 50, 100, 200, 400 ng/ml. Square index (SI) was considered the criterion of biological activity. It was counted as the ratio between the total explant square including the growth zone and the initial square of the cerebral cortex fragment and. Significance of differences between the average values of SI was assessed by Student's t-criterion. SI values were expressed per cent, the control SI value being taken for 100%.
The growth zone of the control cerebral cortex explants included short neurites, migrating glia and fibroblast cells.
Immediate influence of the substances upon the cerebral cortex fragments was investigated in the following experimental series.

`C[C@H](N)C(=O)N[C@@H](CCC(=O)O)C(=O)N[C@@H](CC(=O)O)C(=O)NCC(=O)O` [Ala-Glu-Asp-Gly tetrapeptide, alanyl-glutamyl-aspartyl-glycine] (H-AEDG-OH) was tested, and the “SI of the experimental explants higher than that of the control fragments” value [1] was 24%.

In the case of `C[C@H](NC(=O)[C@H](CC(=O)O)NC(=O)[C@H](CCC(=O)O)NC(=O)[C@@H](N)CCCCN)C(=O)O` [Lys-Glu-Asp-Ala tetrapeptide, lysyl-glutamyl-aspartyl-alanine] (H-KEDA-OH), the “amplitude of synthesis oscillations” value ([2]; hepatocytes of older rats) is reported as “increased considerably”, the “level of protein synthesis in hepatocytes” value ([2]; hepatocytes of rats aged 4, 8 and 18 months, strongest effect in cells of older animals) is reported as “raised the level of protein synthesis” and the “effect on liver explants by longer terms of cultivation” value (liver explants; cultivation up to 7 days) is reported as “analogous stimulating effect”. For the same compound, the “increase in the explant SI as compared to the control value” (liver explants; third day of the cultivation, control SI = 100%) was 24%.

In the case of `C[C@H](N)C(=O)N[C@@H](CCC(=O)O)C(=O)N[C@@H](CC(=O)O)C(=O)N1CCC[C@H]1C(=O)O` [Ala-Glu-Asp-Pro tetrapeptide, L-alanyl-L-glutamyl-L-aspartyl-L-proline] (H-AEDP-OH), the “SI of the experimental explants higher than that of the control cerebral cortex fragments” value (cerebral cortex explants; 20 ng/ml, control SI = 100%) is reported as 40±7% and the “concentration stimulating the fragments of cultivated cerebral cortex (threshold of effective concentrations)” value (cerebral cortex explants; tested 2-400 ng/ml) is reported as 20 ng/mL.
